{
  "source": "patent US20170066795A1",
  "about": "“SOLID PRODRUG FORMS OF 2'-CHLORO-2'-METHYL URIDINE FOR HCV” (IDENIX PHARMACEUTICALS LLC, priority 2014, published 2017)",
  "key": {"HCV": {"test_system": "HCV", "assay": "Example 3 Parts I and II: antiviral activity across genotypes", "type": "in vivo", "conditions": "HCV-infected subjects, 50-300 mg QD x 7 days", "excerpt": "(§1) This part was a randomized, double-blind, placebo-controlled, parallel group study in treatment-naïve, Genotype 1 HCV-infected subjects. Thirty (30) subjects were randomized across the treatment arms specified below.\n(§2) This part were a randomized, open-label, parallel group study in treatment-naïve, Genotype 2, 3, 4, 5 and 6 HCV-infected subjects. Thirty (30) subjects were randomized across the treatment arms specified below.\n(§3) Dosing, sampling, and analyses for Parts I and II were made according to Tables A and B."}, "[1]": {"assay": "Example 4 Group A: plasma pharmacokinetics in healthy volunteers (LC/MS/MS)", "conditions": "human, in vivo; for AUC(0-inf) / Cmax / half-life: mean ± SD; for AUC(0-inf): read-out: AUC∞ of Compound I; for Cmax: read-out: Cmax of Compound I; for half-life: read-out: t1/2 of Compound I (converted); for Tmax: median, read-out: Tmax of Compound I", "experimental": "Six sequential cohorts of 8 health volunteers per cohort were randomized via a computer-generated randomization list in the ratio of 2:6. Two of the healthy volunteers (HV) received placebo and the remaining six received Compound I under fasted conditions at single ascending doses of 10, 25, 50, 150, or 300 mg, or multiple doses at 300 mg QD for 7 days (below, “Group A”).\n(§4) Compound I was provided as size 0, white, hard hydroxypropyl methylcellulose (HPMC) capsules for oral administration at 5 mg, 25 mg, and 50 mg strengths. The same powder blend containing 33.3% weight/weight (w/w) Compound I, a diluent, and a disintegrant is used to fill the capsules for all dose strengths. Matching placebo capsules will also be provided. Storage conditions will be provided on the study drug container label.\nFor Groups A and B, dosing occurred between approximately 08:00 AM and 10:00 AM on each dosing day. Dosing was fasted for all subjects in Groups A and B. For fasted dosing, subjects observed a fasting period of approximately 10 hours prior to each dose and for an additional 4 hours post-dose.\nPlasma samples were obtained up to 120 hours after dosing and the levels of Compound I and its Nucleoside metabolite were measured by using validated LC/MS/MS methodology. Plasma pharmacokinetic parameters were obtained by using non-compartmental analysis with parameters reported as mean±standard deviation (SD) except for Tmax where median (min-max) is shown."}, "[2]": {"assay": "Example 3: tolerability (clinical and laboratory abnormalities) in HCV-infected subjects", "type": "in vivo, human", "conditions": "50-300 mg QD x 7 days", "excerpt": "as §1, §2, §3"}, "genotype 2 or 3 HCV": {"test_system": "genotype 2 or 3 HCV", "assay": "Example 3 Part II: Compound I QD x 7 days in treatment-naïve Genotype 2, 3, 4, 5 and 6 HCV-infected subjects, viral load (HCV RNA)", "type": "in vivo", "conditions": "300 mg/day for 7 days", "experimental": "as §2, §3\nas §4, with “25 mg” for “25 mg,”\n(§5) Dosing occurred between approximately 08:00 AM and 10:00 AM on each dosing day. Water was permitted ad libitum except for 1 hour before and after dosing. Dosing was immediately followed by administration of 240 mL (8 oz.) of water. Meals and beverages served within 24 hours prior to and post dosing were xanthine-free and caffeine-free. Grapefruit and grapefruit juice were not allowed within 7 days before reporting to the clinic on Day −1 and through the end of the study."}, "Genotype 1 HCV": {"test_system": "Genotype 1 HCV", "assay": "Example 3 Part I: Compound I QD x 7 days in treatment-naïve Genotype 1 HCV-infected subjects, viral load (HCV RNA)", "type": "in vivo", "conditions": "300 mg/day for 7 days", "experimental": "as §1, §3\nas §4, with “25 mg” for “25 mg,”\nas §5"}, "[3]": {"conditions": "10 mg, 10 mg single dose, fasted"}, "[4]": {"conditions": "25 mg, 25 mg single dose, fasted"}, "[5]": {"conditions": "50 mg, 50 mg single dose, fasted"}, "[6]": {"conditions": "150 mg, 150 mg single dose, fasted"}, "[7]": {"conditions": "300 mg, 300 mg single dose, fasted"}},
  "note": "Where two headings read alike, the source gives them in different places.",
  "data": [
    {"smiles": "CC(C)OC(=O)[C@@H](C)N[P@@](=O)(OC[C@H]1O[C@@H](n2ccc(=O)[nH]c2=O)[C@](C)(Cl)[C@@H]1O)Oc1ccccc1", "note": "[Compound I]", "values": [
      {"measurement": "antiviral activity across genotypes", "setting": "HCV", "value": "potent pan-genotypic activity in a dose-dependent manner"},
      {"measurement": "AUC(0-inf)", "setting": "[1]; [3]", "value": "26 ± 7.6", "unit": "ng·h/mL"},
      {"measurement": "Cmax", "setting": "[1]; [3]", "value": "17.4 ± 6.64", "unit": "ng/mL"},
      {"measurement": "half-life", "setting": "[1]; [3]", "value": "0.87 ± 0.25", "unit": "h"},
      {"measurement": "Tmax", "setting": "[1]; [3]", "value": 0.8, "unit": "h"},
      {"measurement": "AUC(0-inf)", "setting": "[1]; [4]", "value": "51.2 ± 12.8", "unit": "ng·h/mL"},
      {"measurement": "Cmax", "setting": "[1]; [4]", "value": "28.8 ± 13.4", "unit": "ng/mL"},
      {"measurement": "half-life", "setting": "[1]; [4]", "value": "0.91 ± 0.26", "unit": "h"},
      {"measurement": "Tmax", "setting": "[1]; [4]", "value": 1, "unit": "h"},
      {"measurement": "AUC(0-inf)", "setting": "[1]; [5]", "value": 162, "unit": "ng·h/mL"},
      {"measurement": "Cmax", "setting": "[1]; [5]", "value": "82.4 ± 61.6", "unit": "ng/mL"},
      {"measurement": "half-life", "setting": "[1]; [5]", "value": "1.04 ± 0.34", "unit": "h"},
      {"measurement": "Tmax", "setting": "[1]; [5]", "value": 1, "unit": "h"},
      {"measurement": "AUC(0-inf)", "setting": "[1]; [6]", "value": "1110 ± 690", "unit": "ng·h/mL"},
      {"measurement": "Cmax", "setting": "[1]; [6]", "value": "667 ± 324", "unit": "ng/mL"},
      {"measurement": "half-life", "setting": "[1]; [6]", "value": "1.16 ± 0.24", "unit": "h"},
      {"measurement": "Tmax", "setting": "[1]; [6]", "value": 1, "unit": "h"},
      {"measurement": "AUC(0-inf)", "setting": "[1]; 300 mg, 300 mg QD, D1, fasted", "value": "2170 ± 660", "unit": "ng·h/mL"},
      {"measurement": "Cmax", "setting": "[1]; 300 mg, 300 mg QD, D1, fasted", "value": "1290 ± 333", "unit": "ng/mL"},
      {"measurement": "half-life", "setting": "[1]; 300 mg, 300 mg QD, D1, fasted", "value": "1.88 ± 0.72", "unit": "h"},
      {"measurement": "Tmax", "setting": "[1]; 300 mg, 300 mg QD, D1, fasted", "value": 0.8, "unit": "h"},
      {"measurement": "AUC(0-inf)", "setting": "[1]; 300 mg, 300 mg QD, D7, fasted", "value": "2200 ± 494", "unit": "ng·h/mL"},
      {"measurement": "Cmax", "setting": "[1]; 300 mg, 300 mg QD, D7, fasted", "value": "1280 ± 238", "unit": "ng/mL"},
      {"measurement": "half-life", "setting": "[1]; 300 mg, 300 mg QD, D7, fasted", "value": "2.76 ± 1.79", "unit": "h"},
      {"measurement": "Tmax", "setting": "[1]; 300 mg, 300 mg QD, D7, fasted", "value": 0.5, "unit": "h"},
      {"measurement": "AUC(0-inf)", "setting": "[1]; [7]", "value": "1680 ± 725", "unit": "ng·h/mL"},
      {"measurement": "Cmax", "setting": "[1]; [7]", "value": "924 ± 441", "unit": "ng/mL"},
      {"measurement": "half-life", "setting": "[1]; [7]", "value": "1.19 ± 0.34", "unit": "h"},
      {"measurement": "Tmax", "setting": "[1]; [7]", "value": 0.5, "unit": "h"},
      {"measurement": "tolerability", "setting": "[2]", "value": "well-tolerated with no observed patterns of clinical or laboratory abnormalities"},
      {"measurement": "response in genotype 2 versus genotype 3 HCV infection", "setting": "genotype 2 or 3 HCV", "value": "similar"},
      {"measurement": "mean maximal viral load reduction", "setting": "genotype 2 or 3 HCV; 10 genotype 2 or 3 HCV-infected patients", "value": 4.3, "unit": "logs"},
      {"measurement": "response in genotype 1a versus genotype 1b HCV infection", "setting": "Genotype 1 HCV", "value": "similar"},
      {"measurement": "mean maximal viral load reduction", "setting": "Genotype 1 HCV; 8 genotype 1 HCV-infected patients", "value": 4.2, "unit": "logs"}
    ]}
  ]
}
